Assay results as given in ChEMBL document CHEMBL5226342, “Novel Reversible-Binding PET Ligands for Imaging Monoacylglycerol Lipase Based on the Piperazinyl Azetidine Scaffold” (J Med Chem, 2021).

Legend:
[1] = Drug uptake in iv dosed Sprague-Dawley rat cerebral cortex measured for 90 mins by PET imaging based analysis; type: ADME, organism-based; settings: in vivo, 1.5 h
[2] = Drug uptake in iv dosed Sprague-Dawley rat striatum measured for 90 mins by PET imaging based analysis; type: ADME, organism-based; settings: in vivo, 1.5 h
[3] = Drug uptake in iv dosed Sprague-Dawley rat hippocampus measured for 90 mins by PET imaging based analysis; type: ADME, organism-based; settings: in vivo, 1.5 h
[4] = Drug uptake in iv dosed Sprague-Dawley rat cerebellum measured for 90 mins by PET imaging based analysis; type: ADME, organism-based; settings: in vivo, 1.5 h
[5] = Drug uptake in iv dosed Sprague-Dawley rat pons measured for 90 mins by PET imaging based analysis; type: ADME, organism-based; settings: in vivo, 1.5 h
[6] = Drug uptake in mouse brain treated with MAGL inhibitor, JNJ-42226314 at 15 mins post-drug administration by PET imaging based analysis; type: ADME, tissue-based; settings: in vivo, 0.25 h
[7] = Drug uptake in iv dosed rhesus monkey brain by PET imaging based analysis; type: ADME, organism-based, Macaca mulatta; settings: in vivo
[8] = Drug uptake in iv dosed rhesus monkey cortex by PET imaging based analysis; type: ADME, organism-based, Macaca mulatta; settings: in vivo
[9] = Drug uptake in iv dosed rhesus monkey cerebellum by PET imaging based analysis; type: ADME, organism-based, Macaca mulatta; settings: in vivo
[10] = Drug uptake in iv dosed rhesus monkey hippocampus by PET imaging based analysis; type: ADME, organism-based, Macaca mulatta; settings: in vivo
[11] = Drug uptake in iv dosed rhesus monkey striatum by PET imaging based analysis; type: ADME, organism-based, Macaca mulatta; settings: in vivo
[12] = Drug uptake in iv dosed rhesus monkey pons by PET imaging based analysis; type: ADME, organism-based, Macaca mulatta; settings: in vivo
[13] = Drug uptake in iv dosed rhesus monkey cortex measured after 60 mins by PET imaging based analysis; type: ADME, organism-based, Macaca mulatta; settings: in vivo, 1 h
[14] = Drug uptake in iv dosed rhesus monkey cerebellum measured after 60 mins by PET imaging based analysis; type: ADME, organism-based, Macaca mulatta; settings: in vivo, 1 h
[15] = Drug uptake in iv dosed rhesus monkey hippocampus measured after 60 mins by PET imaging based analysis; type: ADME, organism-based, Macaca mulatta; settings: in vivo, 1 h
[16] = Drug uptake in iv dosed rhesus monkey striatum measured after 60 mins by PET imaging based analysis; type: ADME, organism-based, Macaca mulatta; settings: in vivo, 1 h
[17] = Drug uptake in iv dosed rhesus monkey cortex pretreated with MAGL inhibitor, […] PET imaging based analysis; type: ADME, organism-based, Macaca mulatta; settings: in vivo
[18] = Drug uptake in iv dosed rhesus monkey cerebellum pretreated with MAGL inhibitor, […] PET imaging based analysis; type: ADME, organism-based, Macaca mulatta; settings: in vivo
[19] = Drug uptake in iv dosed rhesus monkey hippocampus pretreated with MAGL inhibitor, […] PET imaging based analysis; type: ADME, organism-based, Macaca mulatta; settings: in vivo
[20] = Drug uptake in iv dosed rhesus monkey striatum pretreated with MAGL inhibitor, […] PET imaging based analysis; type: ADME, organism-based, Macaca mulatta; settings: in vivo
[21] = Drug uptake in iv dosed CD-1 mouse heart measured after 60 mins by Ex vivo whole body biodistribution based analysis; type: ADME, organism-based; settings: 1 h
[22] = Drug uptake in iv dosed CD-1 mouse lung measured after 60 mins by Ex vivo whole body biodistribution based analysis; type: ADME, organism-based; settings: 1 h
[23] = Drug uptake in iv dosed CD-1 mouse pancreas measured after 60 mins by Ex vivo whole body biodistribution based analysis; type: ADME, organism-based; settings: 1 h
[24] = Drug uptake in iv dosed CD-1 mouse kidney measured after 60 mins by Ex vivo whole body biodistribution based analysis; type: ADME, organism-based; settings: 1 h
[25] = Drug uptake in iv dosed CD-1 mouse liver measured after 60 mins by Ex vivo whole body biodistribution based analysis; type: ADME, organism-based; settings: 1 h
[26] = Metabolic stability of the compound in iv dosed Sprague-Dawley rat brain assessed as parent compound remaining measured after 30 mins by radio-HPLC analysis; type: ADME, organism-based; settings: read-out: Stability
[27] = Metabolic stability of the compound in iv dosed Sprague-Dawley rat plasma assessed as parent compound remaining measured after 30 mins by radio-HPLC analysis; type: ADME, organism-based; settings: read-out: Stability
[28] = Metabolic stability of the compound in iv dosed Sprague-Dawley rat brain assessed as parent compound remaining measured after 60 mins by radio-HPLC analysis; type: ADME, organism-based; settings: read-out: Stability
[29] = Metabolic stability of the compound in iv dosed Sprague-Dawley rat plasma assessed as parent compound remaining measured after 60 mins by radio-HPLC analysis; type: ADME, organism-based; settings: read-out: Stability
[30] = Drug uptake in iv dosed rhesus monkey pons measured after 60 mins by PET imaging based analysis; type: ADME, organism-based, Macaca mulatta; settings: in vivo, 1 h
[31] = Drug uptake in iv dosed CD-1 mouse small intestine measured after 60 mins by Ex vivo whole body biodistribution based analysis; type: ADME, organism-based; settings: 1 h

SMILES: O=C(c1ccc2c(ccn2-c2ccc([18F])cc2)c1)N1CC(N2CCN(c3ncccn3)CC2)C1
- SUVmax [1]: 1.4
- Drug uptake [2]: Active
- Drug uptake [3]: Active
- Drug uptake [4]: Active
- Drug uptake [5]: Active
- Drug uptake [6]: Not Active
- SUVmax [7]: 1.2
- Drug uptake [8]: Active
- Drug uptake [9]: Active
- Drug uptake [10]: Active
- Drug uptake [11]: Active
- Drug uptake [12]: Active
- Drug uptake [13]: Active
- Drug uptake [14]: Active
- Drug uptake [15]: Active
- Drug uptake [16]: Active
- Drug uptake [17]: Not Active
- Drug uptake [18]: Not Active
- Drug uptake [19]: Not Active
- Drug uptake [20]: Not Active
- Drug uptake [21]: Not Active
- Drug uptake [22]: Not Active
- Drug uptake [23]: Not Active
- Drug uptake [24]: Not Active
- Drug uptake [25]: Active
- remaining at 0.5 h [26]: 95%
- remaining at 0.5 h [27]: 53%
- remaining at 1 h [28]: 98%
- remaining at 1 h [29]: 40%
- Drug uptake [30]: Not Active
- Drug uptake [31]: Active
